Assay results: patent US7691844B2, “Nonpeptide substituted spirobenzoazepines as vasopressin antagonists” (Ortho-McNeil Pharmaceutical, Inc., priority 2000, dated 2010)

Tests used:
V1a = V1a (Homo sapiens, UniProt P37288); assay: In-vitro receptor binding assay (3H-arginine-8-vasopressin), V1a; conditions: for Receptor Binding V1a (% Inh. @ concentration in μM) / inhibition at 0.1 µM: @ 0.1 μM; for inhibition at 0.1 µM: read-out: Receptor Binding V1a (% Inh. @ concentration in μM)
Procedure: (§1) (A) In-Vitro Binding Assay […] The reaction plates are allowed to sit at room temperature for one hour. The samples are filtered through Unifilter GF/C plates (presoaked in 0.3 polyethyleneimine). The plates are washed 5 times with cold physiological saline containing 0.05% Tween 20. After drying, the bottom of the filter plates are sealed and 0.025 ml of Microscint-20 is added to each filter. The top of the plate is sealed, and the plate is counted. Non-specific binding is determined by the addition of 1.25 μM […]-vasopressin in those wells. % Inh. is calculated as follows: […]

human V2 receptor = human V2 receptor (Homo sapiens, UniProt P30518); assay: In-vitro receptor binding assay (3H-arginine-8-vasopressin), V2; conditions: for inhibition at 1 µM / inhibition at 0.1 µM / inhibition at 0.25 µM / inhibition at 0.225 µM: read-out: Receptor Binding V2 (% Inh. @ concentration in μM); for inhibition at 0.1 µM / Receptor Binding V2 (% Inh. @ concentration in μM): @ 0.1 μM
Sequence of human V2 receptor (P30518 whole entry): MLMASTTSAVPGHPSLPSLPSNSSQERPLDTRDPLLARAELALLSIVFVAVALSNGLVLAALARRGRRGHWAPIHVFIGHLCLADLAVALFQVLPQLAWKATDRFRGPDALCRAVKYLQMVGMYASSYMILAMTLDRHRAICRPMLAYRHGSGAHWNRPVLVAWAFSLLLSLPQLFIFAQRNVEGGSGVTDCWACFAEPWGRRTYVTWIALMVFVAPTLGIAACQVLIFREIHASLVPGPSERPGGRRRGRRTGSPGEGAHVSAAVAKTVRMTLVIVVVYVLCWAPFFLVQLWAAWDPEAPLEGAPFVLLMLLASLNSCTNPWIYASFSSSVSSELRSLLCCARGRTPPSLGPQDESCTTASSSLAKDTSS
Procedure: as §1

Sequence of V1a (P37288 whole entry): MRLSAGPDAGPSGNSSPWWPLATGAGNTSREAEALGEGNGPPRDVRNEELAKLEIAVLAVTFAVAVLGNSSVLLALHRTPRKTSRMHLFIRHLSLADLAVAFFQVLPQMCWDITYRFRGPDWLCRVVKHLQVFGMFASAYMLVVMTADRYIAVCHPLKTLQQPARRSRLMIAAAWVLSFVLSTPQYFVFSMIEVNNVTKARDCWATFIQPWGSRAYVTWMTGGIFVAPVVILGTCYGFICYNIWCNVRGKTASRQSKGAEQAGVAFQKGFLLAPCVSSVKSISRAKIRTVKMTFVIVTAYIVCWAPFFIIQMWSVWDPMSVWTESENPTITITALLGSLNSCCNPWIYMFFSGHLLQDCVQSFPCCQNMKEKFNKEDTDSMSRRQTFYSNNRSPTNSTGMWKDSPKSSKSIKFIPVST

| SMILES | IC50 (V1a) [µM] | IC50 (human V2 receptor) [µM] | inhibition at 0.1 µM (V1a) [%] | further results |
| --- | --- | --- | --- | --- |
| Cc1ncccc1C(=O)Nc1ccc(C(=O)N2CCC3(C=CCCC3)Cc3ccccc32)cc1 (stereo not drawn) [Compound 105] | 0.035 | 1 | – | – |
| O=C(c1ccccc1F)N1CCC2(C=CCCC2)Cc2ccccc21 (stereo not drawn) [Compound 107] | 0.06 | – | – | inhibition at 1 µM (human V2 receptor): 21% |
| Cc1ccc(F)cc1C(=O)Nc1ccc(C(=O)N2CCC3(C=CCCC3)Cc3ccccc32)c(Cl)c1 (stereo not drawn) [Compound 111] | 0.8 | 0.045 | – | – |
| Cc1ccccc1C(=O)Nc1ccc(C(=O)N2CCC3(C=CCCC3)Cc3ccccc32)c(Cl)c1 (stereo not drawn) [Compound 112] | 0.062 | 0.08 | – | – |
| Cc1ccc(-c2ccccc2C(=O)Nc2ccc(C(=O)N3CCC4(C=CCCC4)Cc4ccccc43)cc2)cc1 (stereo not drawn) [Compound 114] | 0.09 | 0.095 | – | – |
| COc1cc(NC(=O)c2ccccc2F)ccc1C(=O)N1CCC2(C=CCCC2)Cc2ccccc21 (stereo not drawn) [Compound 115] | 0.019 | – | – | inhibition at 0.1 µM (human V2 receptor): 37% |
| COc1cc(NC(=O)c2cc(F)ccc2C)ccc1C(=O)N1CCC2(C=CCCC2)Cc2ccccc21 (stereo not drawn) [Compound 116] | 0.019 | 0.091 | – | – |
| Cc1ccc(-c2ccccc2C(=O)Nc2ccc(C(=O)N3CCC4(C=CCCC4)Cc4ccccc43)c(Cl)c2)cc1 (stereo not drawn) [Compound 117] | – | 0.1 | – | Receptor Binding V1a (% Inh. @ concentration in μM) (V1a): 30% @ 0.1 |
| O=C(Nc1ccc(C(=O)N2CCC3(C=CCCC3)Cc3ccccc32)c(Cl)c1)c1ccccc1-c1ccccc1 (stereo not drawn) [Compound 118] | – | 0.085 | 40 | – |
| O=C(Nc1ccc(C(=O)N2Cc3ccccc3CC3(C=CCCC3)C2)cc1)c1ccccc1F (stereo not drawn) [Compound 128, 4-(2-Fluorobenzoyl-4-aminobenzoyl)-3-aza-[6,5]-spiro-[5,6]-benzododec-2′-ene] | 0.042 | – | – | inhibition at 0.1 µM (human V2 receptor): 33% |
| O=C(Nc1ccc(C(=O)C2Cc3ccccc3CC3(C=CCCC3)C2)cc1)c1ccccc1-c1ccccc1 (stereo not drawn) [Compound 129] | – | – | – | Receptor Binding V1a (% Inh. @ concentration in μM) (V1a): 30% @ 0.1; Receptor Binding V2 (% Inh. @ concentration in μM) (human V2 receptor): 9% @ 0.1 |
| Cc1ccccc1C(=O)Nc1ccc(C(=O)C2Cc3ccccc3CC3(C=CCCC3)C2)cc1 (stereo not drawn) [Compound 130] | 0.047 | – | – | Receptor Binding V2 (% Inh. @ concentration in μM) (human V2 receptor): 15% @ 0.1 |
| Cc1ccc(F)cc1C(=O)Nc1ccc(C(=O)C2Cc3ccccc3CC3(C=CCCC3)C2)cc1 (stereo not drawn) [Compound 131] | 0.1 | – | – | Receptor Binding V2 (% Inh. @ concentration in μM) (human V2 receptor): 3% @ 0.1 |
| COC(=O)C1=CC2(CC1)CCN(C(=O)c1ccc(NC(=O)c3ccccc3F)cc1)c1ccccc1C2 (stereo not drawn) [Compound 133] | 0.015 | – | – | inhibition at 0.1 µM (human V2 receptor): 23% |
| COC(=O)C1=CC2(CC1)CCN(C(=O)c1ccc(N)cc1)c1ccccc1C2 (stereo not drawn) [Compound 134] | – | – | 21 | inhibition at 0.1 µM (human V2 receptor): 16% |
| O=C(NCCN1CCCC1)C1=CC2(CC1)CCN(C(=O)c1ccc(NC(=O)c3ccccc3-c3ccccc3)cc1)c1ccccc1C2 (stereo not drawn) [Compound 135] | 0.013 | 0.024 | – | – |
| Cc1ccc(F)cc1C(=O)Nc1ccc(C(=O)N2CCC3(C=C(C(=O)NCCN(C)C)CC3)Cc3ccccc32)c(Cl)c1 (stereo not drawn) [Compound 136] | – | 0.052 | 60 | – |
| Cc1ccc(F)cc1C(=O)Nc1ccc(C(=O)N2CCC3(C=C(CO)CC3)Cc3ccccc32)c(Cl)c1 (stereo not drawn) [Compound 137] | – | – | 53 | inhibition at 0.1 µM (human V2 receptor): 66% |
| Cc1ccc(F)cc1C(=O)Nc1ccc(C(=O)N2CCC3(C=C(C=O)CC3)Cc3ccccc32)c(Cl)c1 (stereo not drawn) [Compound 138] | – | – | 35 | inhibition at 0.1 µM (human V2 receptor): 57% |
| CNCC1=CC2(CC1)CCN(C(=O)c1ccc(NC(=O)c3cc(F)ccc3C)cc1Cl)c1ccccc1C2 (stereo not drawn) [Compound 139] | – | – | 0 | inhibition at 0.1 µM (human V2 receptor): 17% |
| COCCN1CCN(CC2=CC3(CC2)CCN(C(=O)c2ccc(NC(=O)c4cc(F)ccc4C)cc2Cl)c2ccccc2C3)CC1 (stereo not drawn) [Compound 140] | – | – | 41 | inhibition at 0.1 µM (human V2 receptor): 65% |
| Cc1ccc(F)cc1C(=O)Nc1ccc(C(=O)N2CCC3(C=C(CN4CCN(CCN5CCOCC5)CC4)CC3)Cc3ccccc32)c(Cl)c1 (stereo not drawn) [Compound 141] | – | 0.056 | 44 | – |
| Cc1ccc(F)cc1C(=O)Nc1ccc(C(=O)N2CCC3(C=C(CN4CCN(c5ccncc5)CC4)CC3)Cc3ccccc32)c(Cl)c1 (stereo not drawn) [Compound 142] | – | – | 25 | inhibition at 0.1 µM (human V2 receptor): 69% |
| Cc1ccc(F)cc1C(=O)Nc1ccc(C(=O)N2CCC3(C=C(C(=O)O)CC3)Cc3ccccc32)c(Cl)c1 (stereo not drawn) [Compound 143] | – | – | 10 | inhibition at 0.1 µM (human V2 receptor): 67% |
| O=CC1=C[C@@]2(CC1)CCN(C(=O)c1ccc(NC(=O)c3ccccc3F)cc1Cl)c1ccccc1C2 [Compound 144] | 0.008 | – | – | inhibition at 0.1 µM (human V2 receptor): 9% |
| O=C(Nc1ccc(C(=O)N2CCC3(C=C(C(=O)N4CCN(c5ccncc5)CC4)CC3)Cc3ccccc32)cc1)c1ccccc1-c1ccccc1 (stereo not drawn) [Compound 145] | – | 0.066 | 66 | – |

| SMILES | IC50 (V1a) [µM] | IC50 (human V2 receptor) [µM] | inhibition at 0.1 µM (V1a) [%] | further results |
| --- | --- | --- | --- | --- |
| O=C(Nc1ccc(C(=O)N2CCC3(C=C(C(=O)N(CCN4CCOCC4)CCN4CCOCC4)CC3)Cc3ccccc32)cc1)c1ccccc1-c1ccccc1 (stereo not drawn) [Compound 146] | – | – | 48 | inhibition at 0.1 µM (human V2 receptor): 39% |
| COC(=O)c1ccc(C(=O)N2Cc3ccccc3CC3(C=CCCC3)C2)cc1 (stereo not drawn) [Compound 149] | 0.56 | – | – | inhibition at 1 µM (human V2 receptor): 54% |
| Cc1ccn(-c2ccc(C(=O)N3CCC4(C=CCCC4)Cc4ccccc43)cc2-n2ccc(C)n2)n1 (stereo not drawn) [Compound 151] | 0.042 | – | – | inhibition at 1 µM (human V2 receptor): 20% |
| O=Cc1ccn(-c2ccc(C(=O)N3CCC4(C=CCCC4)Cc4ccccc43)cc2)c1 (stereo not drawn) [Compound 152] | 0.084 | – | – | inhibition at 1 µM (human V2 receptor): 13% |
| COc1ccc(C(=O)N2Cc3ccccc3CC3(C=CCCC3)C2)cc1OC (stereo not drawn) [Compound 153] | 0.55 | – | – | inhibition at 1 µM (human V2 receptor): 0% |
| O=C(c1ccc(-n2ccc(CO)c2)cc1)N1CCC2(C=CCCC2)Cc2ccccc21 (stereo not drawn) [Compound 154] | 0.025 | – | – | inhibition at 1 µM (human V2 receptor): 36% |
| O=C(c1ccc(-n2cccn2)c(-n2cccn2)c1)N1CCC2(C=CCCC2)Cc2ccccc21 (stereo not drawn) [Compound 155] | 0.13 | – | – | inhibition at 1 µM (human V2 receptor): 2% |
| O=C(c1ccc(-n2cccn2)c(F)c1)N1CCC2(C=CCCC2)Cc2ccccc21 (stereo not drawn) [Compound 156, 4-(3-Fluoro-4-(pyrazol-1-yl)benzoyl)-4-aza-[6,5]-spiro-[5,6]-benzododec-2′-ene] | 0.11 | – | – | inhibition at 1 µM (human V2 receptor): 13% |
| Cc1ccc(F)cc1C(=O)Nc1ccc(C(=O)N2CCC3(C=C(C(=O)NCCCN4CCCC4)CC3)Cc3ccccc32)cc1 (stereo not drawn) [Compound 157] | 0.016 | 0.038 | – | – |
| Cc1ccc(F)cc1C(=O)Nc1ccc(C(=O)N2CCC3(C=C(C(=O)NCCCN4CCOCC4)CC3)Cc3ccccc32)cc1 (stereo not drawn) [Compound 158] | 0.016 | 0.039 | – | – |
| Cc1ccc(F)cc1C(=O)Nc1ccc(C(=O)N2CCC3(C=C(C(=O)NCCO)CC3)Cc3ccccc32)cc1 (stereo not drawn) [Compound 159] | 0.011 | 0.047 | – | – |
| Cc1ccc(F)cc1C(=O)Nc1ccc(C(=O)N2CCC3(C=C(C(=O)NCCN4CCCCC4)CC3)Cc3ccccc32)cc1 (stereo not drawn) [Compound 160] | 0.011 | 0.082 | – | – |
| Cc1ccc(F)cc1C(=O)Nc1ccc(C(=O)N2CCC3(C=C(C(=O)NCCN4CCCC4)CC3)Cc3ccccc32)cc1 (stereo not drawn) [Compound 161] | 0.01 | 0.072 | – | – |
| CCOC(=O)C1=CC2(CC1)CCN(C(=O)c1ccc(NC(=O)c3ccccc3C)cc1)c1ccccc1C2 (stereo not drawn) [Compound 162] | 0.069 | – | – | inhibition at 0.25 µM (human V2 receptor): 42% |
| O=C(c1ccc(-n2ccc(CO)c2)cc1Cl)N1CCC2(C=CCCC2)Cc2ccccc21 (stereo not drawn) [Compound 164] | 0.114 | – | – | inhibition at 0.25 µM (human V2 receptor): 20% |
| COc1cc(-n2ccc(CO)c2)ccc1C(=O)N1CCC2(C=CCCC2)Cc2ccccc21 (stereo not drawn) [Compound 165] | 0.042 | – | – | inhibition at 0.25 µM (human V2 receptor): 25% |
| COc1cc(-n2ccc(C=O)c2)ccc1C(=O)N1CCC2(C=CCCC2)Cc2ccccc21 (stereo not drawn) [Compound 166] | 0.114 | – | – | inhibition at 0.225 µM (human V2 receptor): 5% |
| COc1cc(C(=O)N2CCC3(C=CCCC3)Cc3ccccc32)ccc1-n1ccc(C=O)c1 (stereo not drawn) [Compound 167, 4-(3-Methoxy-4-(pyrrol-1-yl-3-carboxaldehyde)benzoyl)-4-aza-[6,5]-spiro-[5,6]-benzododec-2′-ene] | 0.06 | – | – | inhibition at 0.225 µM (human V2 receptor): 19% |
| CC(=O)N1CCC(Oc2ccc(C(=O)N3CCC4(C=CCCC4)Cc4ccccc43)cc2F)CC1 (stereo not drawn) [Compound 168, 4-(3-Fluoro-4-(N-acetylpiperidin-4-yloxy)benzoyl)-4-aza-[6,5]-spiro-[5,6]-benzododec-2′-ene] | – | – | 50 | inhibition at 1 µM (human V2 receptor): 0% |
| COC(=O)CN1CCC(Oc2ccc(C(=O)N3CCC4(C=CCCC4)Cc4ccccc43)cc2F)CC1 (stereo not drawn) [Compound 169] | – | – | 4 | inhibition at 1 µM (human V2 receptor): 0% |
| COc1cc(NC(=O)c2cc(F)ccc2C)ccc1C(=O)N1CCC2(C=C(C=O)CC2)Cc2ccccc21 (stereo not drawn) [Compound 170] | 0.055 | 0.21 | – | – |
| CCCCN1CCC(Oc2ccc(C(=O)N3CCC4(C=CCCC4)Cc4ccccc43)cc2F)CC1 (stereo not drawn) [Compound 171] | – | – | 24 | inhibition at 1 µM (human V2 receptor): 65% |
| CC(=O)Oc1ccc(C(=O)N2CCC3(C=CCCC3)Cc3ccccc32)cc1 (stereo not drawn) [Compound 172] | – | – | 15 | inhibition at 1 µM (human V2 receptor): 0% |
| CC(C)CCN1CCC(Oc2ccc(C(=O)N3CCC4(C=CCCC4)Cc4ccccc43)cc2F)CC1 (stereo not drawn) [Compound 173] | – | – | 0 | inhibition at 1 µM (human V2 receptor): 0% |
| CCCCC(=O)N1CCC(Oc2ccc(C(=O)N3CCC4(C=CCCC4)Cc4ccccc43)cc2F)CC1 (stereo not drawn) [Compound 174] | – | – | 0 | inhibition at 1 µM (human V2 receptor): 8% |
